From US6350859B1, “Class BI and CI scavenger receptors” (Massachusetts Institute of Technology, priority 1994, dated 2002)

Molecular target: T1, haSR-BI (Cricetulus griseus, UniProt Q60417)
T1 construct: expressed in transfected cells
T1 sequence (Q60417 1-509): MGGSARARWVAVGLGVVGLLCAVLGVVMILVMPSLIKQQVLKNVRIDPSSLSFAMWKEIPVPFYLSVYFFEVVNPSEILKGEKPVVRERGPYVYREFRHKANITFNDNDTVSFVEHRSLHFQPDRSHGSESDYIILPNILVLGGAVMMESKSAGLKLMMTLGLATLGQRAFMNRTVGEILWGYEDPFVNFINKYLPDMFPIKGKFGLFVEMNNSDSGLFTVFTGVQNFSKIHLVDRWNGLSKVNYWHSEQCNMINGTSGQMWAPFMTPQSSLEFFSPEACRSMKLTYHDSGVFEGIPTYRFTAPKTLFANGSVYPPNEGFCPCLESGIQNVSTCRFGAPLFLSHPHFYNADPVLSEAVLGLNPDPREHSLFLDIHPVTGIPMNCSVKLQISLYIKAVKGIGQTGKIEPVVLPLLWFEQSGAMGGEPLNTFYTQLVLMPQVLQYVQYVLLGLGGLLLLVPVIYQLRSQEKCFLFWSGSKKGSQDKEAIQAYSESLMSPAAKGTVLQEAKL
Experiment: [3H]-liposome binding at 4° C. to haSR-BI in ldlA[haSR-BI] cells
Set-up: species or system hamster
Settings: EDTA 1-10 mM
Description: Unilamellar liposomes were made by extrusion through policarbonate membranes (Szoka et al., 1980). Phospholipid liposomes were prepared containing the indicated phospholipid, phosphatidycholine, and free cholesterol in a molar ratio of 1:1:1. The lipids were mixed in chloroform and dried by rotary evaporation for 30 min. For preparation of radiolabeled liposomes, 50-75 μCi of [^3H]DPPC(62 Ci/mmol) were added to the lipid mixtures before drying. The dried lipids were resuspended in 150 mM NaCl, 0.1 mM EDTA, 10 mM HEPES, pH 7.5 (Buffer A). […] The final phospholipid concentration was determined by the method of Bartlett (1959). The average diameters of unlabeled liposomes, which were determined from either two or three independent preparations using light scattering with a Coulter N4 plus light scatterer apparatus (Coulter Electronics Inc., Hialeah, Fla.), were: PS, 105; PC, 114: PA, 125; PE, 129; P1, 113; and SM, 131 nm. The number of phospholipid molecules/PS liposome was calculated as follows. […]
Ligand Binding Assays. […] The cells were then solubilized with […], and radioactivity and protein determinations were made as described above. […] The binding values are expressed as nanograms of bound ^125I-labeled protein or ng of total phospholipids from ^3H-labeled liposomes/milligram of cell protein. […]

## O=C(O)CN(CCN(CC(=O)O)CC(=O)O)CC(=O)O [EDTA]
  effect on PS liposome binding: not inhibited
